Experimental findings from patent US20240360154A1, “AROYL SUBSTITUTED TRICYCLIC COMPOUND, PREPARATION METHOD THEREFOR AND USE THEREOF” (GENFLEET THERAPEUTICS (SHANGHAI) INC., priority 2020, published 2024) are described below.

One assay deals with BTK (Homo sapiens (Human), UniProt Q06187). The experiment in a line: BTK enzyme experiment (ADP-Glo kinase assay). The assay is classed as biochemical. The settings on record: 10 nM BTK, ATP 125 μM, Poly(Glu4, Tyr1), 90 minutes at 20° C.; read-out: BTK(WT) IC50. As for the experimental part:
(§1) A 3-fold gradient concentration stock solution of 1000× compound was prepared using DMSO and diluted 100-fold to 10× compound stock solution using reaction buffer (50 mM HEPES, pH 7.5, 0.0015% Briji-35, 2 mM DTT, 10 mM MgCl2), and the 10× compound stock solution was transferred to a 384-well plate. Enzyme reactions were set up with BTK Kinase Enzyme System (Promega Catalog #V2941) or BTK (C481S) Kinase Enzyme System (Promega Catalog #VA7033). First, a 2× enzyme solution containing 10 nM BTK or 10 nM BTK C481S was prepared with reaction buffer and added to the plate, and incubated with the compound for 10 minutes. […] Finally, the kinase activity was detected according to the experimental steps provided by ADP-Glo™ kinase Assay Kit (Promega, #V9101), and finally the luminescence chemiluminescence value was read. DMSO was used as the maximum signal value, and adding no enzyme was used as the minimum signal value. The inhibition rate of the compound (%)=(maximum signal value−compound signal value)/(maximum signal value−minimum signal value)×100% was calculated. The compound gradient dilution concentration and the corresponding inhibition rate of the enzyme activity were fit by using XLFit four-parameter method, and IC50 value was calculated.

A further assay deals with BTK (C481S) (Homo sapiens (Human), UniProt Q06187, C481S). The experiment in a line: BTK C481S enzyme experiment (ADP-Glo kinase assay). The settings on record: 10 nM BTK C481S, ATP 125 μM, Poly(Glu4, Tyr1), 90 minutes at 20° C. The assay is classed as biochemical. As for the experimental part:
as §1

The test system of the next assay is TMD-8 cells. The experiment in a line: TMD-8 proliferation inhibition experiment. The settings on record: human diffuse large B lymphoma cells, three days incubation. The format is cell-based. As for the experimental part:
TMD-8 cells are human diffuse large B lymphoma (Mingzhou Bio, MZ-0832), cultured in 10% FBS+1% PS 1640 medium; OCI-LY10 is human diffuse large B lymphoma (BeNa Culture Collection, BNCC337742), cultured in 10% FBS+1% PS IMDM. Day 1: Cells at logarithmic growth phase were taken, counted and inoculated 600 TMD-8 or 2000 OCI-LY10 cells in a 384-well cell culture plate and cultured overnight. Day 2: A 3-fold gradient concentration stock solution of 400× compound was prepared with DMSO, and diluted 40-fold to a 10× compound stock solution with culture medium. The 10× compound stock solution was added to each cell culture well with a final concentration of 1× compound stock solution and a DMSO content of 0.25%. DMSO was used as experimental control, and culture medium was used as blank control. The incubation was continued for three days after compound addition. On the fifth day, 25 μL of […] was added to each well, mixed well and incubated for 10 minutes, then the chemiluminescence value (RLU value) was read. The cell proliferation inhibition rate (%)=(RLUcontrol−RLUcompound)/(RLUcontrol−RLUblank)×100% was calculated. The compound gradient dilution concentration and the corresponding cell proliferation inhibition rate were fit by using XLFit four-parameter method, and IC50 value was calculated.

Sequence of BTK (C481S) (Q06187 whole entry C481S): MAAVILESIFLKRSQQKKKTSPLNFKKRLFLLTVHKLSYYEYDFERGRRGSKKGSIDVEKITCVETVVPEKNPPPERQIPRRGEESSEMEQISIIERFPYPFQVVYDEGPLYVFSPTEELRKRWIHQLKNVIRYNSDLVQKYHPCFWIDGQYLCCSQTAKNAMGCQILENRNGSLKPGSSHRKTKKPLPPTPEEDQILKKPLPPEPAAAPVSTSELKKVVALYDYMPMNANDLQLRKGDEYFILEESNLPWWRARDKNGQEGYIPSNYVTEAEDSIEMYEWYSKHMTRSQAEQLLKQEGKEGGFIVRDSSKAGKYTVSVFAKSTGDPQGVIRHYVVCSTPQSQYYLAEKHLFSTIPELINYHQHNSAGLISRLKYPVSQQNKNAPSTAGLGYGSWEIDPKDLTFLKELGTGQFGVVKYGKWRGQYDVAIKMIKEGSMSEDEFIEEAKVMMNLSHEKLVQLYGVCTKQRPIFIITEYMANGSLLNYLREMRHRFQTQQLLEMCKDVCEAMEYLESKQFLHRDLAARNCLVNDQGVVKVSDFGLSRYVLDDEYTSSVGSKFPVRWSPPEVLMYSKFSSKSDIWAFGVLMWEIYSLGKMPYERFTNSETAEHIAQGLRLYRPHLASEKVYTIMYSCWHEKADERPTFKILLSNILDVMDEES
Sequence of BTK (Q06187 whole entry): as the sequence (Q06187 whole entry C481S) above, with S481C counted along it

Regarding `O=C(c1ccc(Oc2ccccc2)cc1Cl)c1c[nH]c2ncc3c(c12)N[C@@]1(CCOC1)C(=O)N3` (single isomer, unassigned) [Z1-1], the values for the IC50 at BTK, on BTK (C481S) and in the assay with TMD-8 cells were 67.1 nM, 23.6 nM and 183 nM, respectively.
As to `O=C(c1ccc(Oc2ccccc2)cc1Cl)c1c[nH]c2ncc3c(c12)N[C@]1(CCOC1)C(=O)N3` (single isomer, unassigned) [Z1-2], the results for the IC50 on BTK, at BTK (C481S) and in the assay with TMD-8 cells were 64.7 nM, 27.2 nM and 232 nM, respectively.
Consider `CC(=O)N1CC[C@@]2(C1)Nc1c(cnc3[nH]cc(C(=O)c4ccc(Oc5ccccc5)cc4Cl)c13)NC2=O` (single isomer, unassigned) [Z4-2], for which the figures for the IC50 at BTK, on BTK (C481S) and in the assay with TMD-8 cells were 46.1 nM, 19.8 nM and 1200 nM, respectively.
Take `COC[C@]1(C)Nc2c(cnc3[nH]cc(C(=O)c4ccc(Oc5ccccc5)cc4)c23)NC1=O` [Z125-1, (S)-2-(methoxymethyl)-2-methyl-9-(4-phenoxybenzoyl)-1,2,4,7-tetrahydro-3H-pyrrolo[3′,2′:5,6]pyrido[3,4-b]pyrazin-3-one]: the IC50 at BTK is 28.2 nM; at BTK (C481S), 29.1 nM.
The matching figures for `COC[C@]1(C)Nc2c(cnc3[nH]cc(C(=O)c4ccc(Oc5cc(C)cc(C)n5)cc4Cl)c23)NC1=O` [Z127-1, (S)-9-(2-chloro-4-((4,6-dimethylpyridin-2-yl)oxy)benzoyl)-2-(methoxymethyl)-2-methyl-1,2,4,7-tetrahydro-3H-pyrrolo[3′,2′:5,6]pyrido[3,4-b]pyrazin-3-one]: 29.1 nM and 31.5 nM.
Turning to `COC[C@]1(C)Nc2c(cnc3[nH]cc(C(=O)c4ncc(Oc5ccccc5)cc4Cl)c23)NC1=O` [Z133], the IC50 at BTK amounted to 28.8 nM; on BTK (C481S), 38.4 nM.
For the compound `COC[C@]1(C)Nc2c(cnc3[nH]cc(C(=O)c4ccc(Oc5cc(C)nc(Cl)c5)cc4Cl)c23)NC1=O` [Z135, (S)-9-(2-chloro-4-((2-chloro-6-methylpyridin-4-yl)oxy)benzoyl)-2-(methoxymethyl)-2-methyl-1,2,4,7-tetrahydro-3H-pyrrolo[3′,2′:5,6]pyrido[3,4-b]pyrazin-3-one], the values for the IC50 on BTK and at BTK (C481S) were 58.9 nM and 88.8 nM, respectively.
As for `COCCN1C(=O)[C@](C)(COC)Nc2c1cnc1[nH]cc(C(=O)c3ccc(Oc4ccccc4)cc3Cl)c21` [Z142], the IC50 at BTK was 35.2 nM; against BTK (C481S), 19.7 nM.
As for `[2H]C([2H])([2H])OC[C@]1(C)Nc2c(cnc3[nH]cc(C(=O)c4ccc(Cn5cccn5)cc4Cl)c23)NC1=O` [Z170, (S)-9-(4-((1H-pyrazol-1-yl)methyl)-2-chlorobenzoyl)-2-((methoxy-d3)methyl)-2-methyl-1,2,4,7-tetrahydro-3H-pyrrolo[3′,2′:5,6]pyrido[3,4-b]pyrazin-3-one], the concentration for half-maximal inhibition (IC50) at BTK stood at 28.4 nM; on BTK (C481S) it was 36.5 nM.
Regarding `[2H]C([2H])([2H])OC[C@]1(C)Nc2c(cnc3[nH]cc(C(=O)c4ccc(Cn5ccc(C)n5)cc4Cl)c23)NC1=O` [Z174, (S)-9-(2-chloro-4-((3-methyl-1H-pyrazol-1-yl)methyl)benzoyl)-2-((methoxy-d3)methyl)-2-methyl-1,2,4,7-tetrahydro-3H-pyrrolo[3′,2′:5,6]pyrido[3,4-b]pyrazin-3-one], the IC50 turned out to be 76.6 nM at BTK and 115 nM against BTK (C481S).
Regarding `[2H]C([2H])([2H])OC[C@]1(C)Nc2c(cnc3[nH]cc(C(=O)c4ccc(Cn5nccc5C)cc4Cl)c23)NC1=O` [Z175, (S)-9-(2-chloro-4-((5-methyl-1H-pyrazol-1-yl)methyl)benzoyl)-2-((methoxy-d3)methyl)-2-methyl-1,2,4,7-tetrahydro-3H-pyrrolo[3′,2′:5,6]pyrido[3,4-b]pyrazin-3-one], the IC50 at BTK is 74.4 nM; against BTK (C481S), 76.5 nM.
Consider `[2H]C([2H])([2H])Oc1cccc(F)c1Oc1ccc(C(=O)c2c[nH]c3ncc4c(c23)N[C@@](C)(COC)C(=O)N4)c(Cl)c1` [Z187], for which the IC50 in the assay on TMD-8 cells (Homo sapiens, TMD8, 72 h) was 41.3 nM.
For `COC[C@]1(C)Nc2c(cnc3[nH]cc(C(=O)c4ccc(Oc5cc(C)cc(C)n5)cc4F)c23)NC1=O` [Z189-1, (S)-9-(4-((4,6-dimethylpyridin-2-yl)oxy)-2-fluorobenzoyl)-2-(methoxymethyl)-2-methyl-1,2,4,7-tetrahydro-3H-pyrrolo[3′,2′:5,6]pyrido[3,4-b]pyrazin-3-one], the figures for the IC50 on BTK and against BTK (C481S) were 50.4 nM and 60.3 nM, respectively.
Turning to `[2H]C([2H])([2H])N1C(=O)[C@](C)(COC)Nc2c1cnc1[nH]cc(C(=O)c3ccc(Oc4ccccc4)cc3Cl)c21` [Z190, (S)-9-(2-chloro-4-phenoxybenzoyl)-2-(methoxymethyl)-2-methyl-4-(methyl-d3)-1,2,4,7-tetrahydro-3H-pyrrolo[3′,2′:5,6]pyrido[3,4-b]pyrazin-3-one], the IC50 came to 16.3 nM at BTK and 20.1 nM against BTK (C481S).
For the compound `[2H]C([2H])([2H])OC[C@]1(C)Nc2c(cnc3[nH]cc(C(=O)c4ccc(Oc5ccccc5)cc4Cl)c23)N(C([2H])([2H])[2H])C1=O` [Z193, (S)-9-(2-chloro-4-phenoxybenzoyl)-2-((methoxy-d3)methyl)-2-methyl-4-(methyl-d3)-1,2,4,7-tetrahydro-3H-pyrrolo[3′,2′:5,6]pyrido[3,4-b]pyrazin-3-one], the figures for the IC50 at BTK and against BTK (C481S) were 19.1 nM and 21.9 nM, respectively.
Take `COC[C@]1(C)Nc2c(cnc3[nH]cc(C(=O)c4ccc(OC)c(F)c4Cl)c23)NC1=O` [Z194, (S)-9-(2-chloro-3-fluoro-4-methoxybenzoyl)-2-(methoxymethyl)-2-methyl-1,2,4,7-tetrahydro-3H-pyrrolo[3′,2′:5,6]pyrido[3,4-b]pyrazin-3-one]: the results for the IC50 on BTK and against BTK (C481S) were 47.3 nM and 77.4 nM, respectively.
On to `COC[C@]1(C)Nc2c(cnc3[nH]cc(C(=O)c4c(F)cccc4Cl)c23)NC1=O` [Z196, (S)-9-(2-chloro-6-fluorobenzoyl)-2-(methoxymethyl)-2-methyl-1,2,4,7-tetrahydro-3H-pyrrolo[3′,2′:5,6]pyrido[3,4-b]pyrazin-3-one], for which the IC50 amounted to 26.4 nM on BTK and 25.8 nM against BTK (C481S).
For `CC1(C)COc2cnc3[nH]cc(C(=O)c4ccccc4Cl)c3c2N1` [Z198, (2-chlorophenyl)(2,2-dimethyl-1,2,3,7-tetrahydropyrrolo[3′,2′:5,6]pyrido[3,4-b][1,4]oxazin-9-yl)methanone], the IC50 at BTK was found to be 17.4 nM; against BTK (C481S) it was 15.1 nM.
Regarding `COC[C@]1(C)Nc2c(cnc3[nH]cc(C(=O)c4ccccc4Cl)c23)N=C1SC` [Z199, (S)-(2-chlorophenyl)(2-(methoxymethyl)-2-methyl-3-(methylthio)-2,7-dihydro-1H-pyrrolo[3′,2′:5,6]pyrido[3,4-b]pyrazin-9-yl)methanone], the IC50 on BTK was 42.6 nM; against BTK (C481S), 23.2 nM.
For `COC[C@]1(C)Nc2c(cnc3[nH]cc(C(=O)c4ccccc4Cl)c23)N=C1OC` [Z200, (S)-(2-chlorophenyl)(3-methoxy-2-(methoxymethyl)-2-methyl-2,7-dihydro-1H-pyrrolo[3′,2′:5,6]pyrido[3,4-b]pyrazin-9-yl)methanone], the IC50 worked out at 18.8 nM on BTK and 9.9 nM at BTK (C481S).
In the case of `COC[C@]1(C)Nc2c(cnc3[nH]cc(C(=O)c4ccc(Oc5ccccc5)cc4Cl)c23)N=C1SC` [Z201, (S)-(2-chloro-4-phenoxyphenyl)(2-(methoxymethyl)-2-methyl-3-(methylthio)-2,7-dihydro-1H-pyrrolo[3′,2′:5,6]pyrido[3,4-b]pyrazin-9-yl)methanone], the IC50 on BTK amounted to 122 nM; at BTK (C481S), 215 nM.
Consider `COC[C@]1(C)Nc2c(cnc3[nH]cc(C(=O)c4ccc(Oc5ccccc5)cc4Cl)c23)NC1=S` [Z202, (S)-(2-chloro-4-phenoxyphenyl)(2-(methoxymethyl)-2-methyl-3-thioxo-2,3,4,7-tetrahydro-1H-pyrrolo[3′,2′:5,6]pyrido[3,4-b]pyrazin-9-yl)methanone], for which the IC50 on BTK came out at 23.8 nM; at BTK (C481S), 27.8 nM.
`CCSC1=Nc2cnc3[nH]cc(C(=O)c4ccc(Oc5ccccc5)cc4Cl)c3c2N[C@@]1(C)COC` [Z203, (S)-(2-chloro-4-phenoxyphenyl)(3-(ethylthio)-2-(methoxymethyl)-2-methyl-2,7-dihydro-1H-pyrrolo[3′,2′:5,6]pyrido[3,4-b]pyrazin-9-yl)methanone]: the IC50 at BTK was 75.1 nM; on BTK (C481S) it was 142 nM.
